Source: US20210222208A1, “SUGAR-DERIVED STIMULANT FOR ENHANCEMENT OF AEROBIC AND ANAEROBIC FERMENTATION PERFORMANCE” (priority 2018, published 2021)

System: S. cerevisiae M11205
Assay type: cell-based, Saccharomyces cerevisiae

## OCCCCO [1,4-butanediol]
  Contribution to enhancement at higher sugar concentrations: no distinct contribution for enhancement
  Contribution to stimulant properties versus control without addition: not itself a contributor to the stimulant properties
  Day 5 % of Theoretical Max. Ethanol Yield: 88.8%
  Effect on fermentation rates: does not create the increased fermentation rates
